Experimental data: patent US20080286349A1, “SYSTEMS, DEVICES, AND METHODS FOR PASSIVE TRANSDERMAL DELIVERY OF ACTIVE AGENTS TO A BIOLOGICAL INTERFACE” (priority 2007, published 2008)
Structures can show the parent of a compound that is named as a salt. One block for each compound: values may come before it.

Columns and labels:
[1] = Computed membrane potential and ion flux (Eq. 11 Goldman equation, Eq. 12); settings: relative to Cl−
Source text: Further, it is necessary to linearly approximate the concentration gradient or the electric potential gradient to solve equation 9. […] The potential difference across the skin has been considered for a single component system. […] Thus, a film potential can be calculated provided that the ion mobility (omega) and concentration (c) within the skin are known. The ion transport speed can then be found from the calculated film potential.

[2] = Membrane potential measurement across skin in H-shaped Franz cell; ion mobility relative to chloride; format: physicochemical, mouse; settings: Cl− = 1
Source text: The electric potential difference shown here is between the outside and the inside of the skin. The “+/−” notation is opposite to that shown in Equation 12. […] These values have been used to make calculations.

[3] = Delivery of aqueous drug solutions through skin in Franz cell (amount over time, flux); settings: for experimental Flux J: 1.0% Diclofenac
Source text: An H-shaped Franz cell (FIG. 7) was used to evaluate the theory described herein. As shown, the Franz cell 28 includes a donor chamber 30a and a receiver chamber 30b. The donor chamber 30a contains an ionic active agent, which permeates through a membrane 32 to reach the receiver chamber 30b. A working electrode 34a was inserted in the donor chamber 30a, while a counter electrode 34b (i.e., reference electrode) was inserted in the receptor chamber 30b. It is possible to measure the electrical potential difference induced by the ionic diffusion/permeation and the concentration gradient thus established. […]

[4] = Example 1: Procaterol HCl solutions, Franz cell at 32° C.; format: in vitro ADME, mouse; set-up: unit not given here
Method: Typically, 17 ml of phosphate buffered saline (PBS, sold by Wako Pure Chemical Industries) was injected into the receptor cell, and a 10 mm stirring bar was used to agitate the solution during the test. The Franz cell was placed in an incubator (made by ESPEC, model LH-113) with the temperature set to 32° C. and the humidity set to 70%. Samples were typically extracted from the cell at predetermined times using a 200 μl Gilson Pipetman. 200 μl of PBS was then added to the cell after each sampling operation.
For measuring the active agent (e.g., Procaterol cation) permeated, a standard solution with known concentration can be prepared and compared with the concentration measured. Using Procaterol HCl as an example, 50 mg of Procaterol HCl (97.25% anhydrous) was accurately measured out, and then added to water to form 50 ml of solution (“Procaterol concentrate liquid”). The standard concentrate was then diluted (“Procaterol standard solution”) and used as a mobile phase for high performance (or pressure) liquid chromatography (HPLC). The Procaterol concentrate liquid was sealed in a light shielding bottle and stored in a refrigerator. 10 μl of each test sample and 10 μl of the standard solution was measured using HPLC, and Procaterol peak areas At (test samples) and As (standard solution) were determined for each sample. Procaterol HCl masses were then found for each test sample using the following equation: […]
In Example 1, before testing the delivery device 10, sixteen tests were performed at four different agent concentrations (four tests (#1, #2, #3, and #4) for each concentration of active agent) using Procaterol HCl in order to investigate the transport of Procaterol cation into and through skin along a concentration gradient. A Franz cell was used at 32° C. using hairless mouse skin as a permeable membrane. 720 corresponds to the average delivery of a 5 wt % Procaterol-HCl concentration, 722 corresponds to the average delivery of a 2.5 wt % Procaterol-HCl concentration, 724 corresponds to the average delivery of a 1 wt % Procaterol-HCl concentration, and 726 corresponds to the average delivery of a 0.5 wt % Procaterol-HCl concentration. […] It can be seen that the amount of Procaterol delivered through the skin increases over time. Further, it can also be seen that the amount of Procaterol delivered increases with increased Procaterol concentration. To deliver a medically effective amount of Procaterol through the skin, the concentration of the Procaterol solution must be equal to or greater than a certain threshold concentration. A sufficient amount of Procaterol dissolved in water was used in this experiment, thus leading to a rather large Procaterol delivery speed. It is therefore possible to deliver Procaterol through the skin, provided that the solution exists in proximity to the surface of the skin.

SMILES: O=C1O[C@H]([C@@H](O)CO)C(O)=C1O[C@H]1O[C@H](CO)[C@@H](O)[C@H](O)[C@H]1O [AA2G, L-Ascorbic acid 2-Glucoside]
- Mobility ratio w ([1]; AA2G 0.000059 mol cm^3): 0.1
- Mobility ratio w ([1]; AA2G 0.000148 mol cm^3): 0.4
- Mobility of ion (AA2G− compared to chloride ions) ([2]; AA2G 300 mM (0.296 mol dm^−3 donor)): 0.83

SMILES: O=C([O-])Cc1ccccc1Nc1c(Cl)cccc1Cl.[Na+] [Diclofenac, monosodium 2-(2-(2,6-dichlorophenylamino)phenyl)acetate]
- Flux ([3]; 0.003 M sodium Diclofenac): 1.30 μg h^−1 cm^−2
- Amount of Diclofenac delivered ([3]; 0.003 M, time 0 hr): 0.0
- Amount of Diclofenac delivered ([3]; 0.003 M, time 1 hr): 0.0
- Amount of Diclofenac delivered ([3]; 0.003 M, time 3 hr): 2.0
- Amount of Diclofenac delivered ([3]; 0.003 M, time 5 hr): 5.6
- Amount of Diclofenac delivered ([3]; 0.003 M, time 24 hr): 31.1
- Flux ([3]; 0.016 M sodium Diclofenac): 2.21 μg h^−1 cm^−2
- Amount of Diclofenac delivered ([3]; 0.016 M, time 0 hr): 0.0
- Amount of Diclofenac delivered ([3]; 0.016 M, time 1 hr): 0.0
- Amount of Diclofenac delivered ([3]; 0.016 M, time 3 hr): 3.6
- Amount of Diclofenac delivered ([3]; 0.016 M, time 5 hr): 9.8
- Amount of Diclofenac delivered ([3]; 0.016 M, time 24 hr): 53.1
- Flux ([3]; 0.031 M sodium Diclofenac): 4.62 μg h^−1 cm^−2
- Amount of Diclofenac delivered ([3]; 0.031 M, time 0 hr): 0.0
- Amount of Diclofenac delivered ([3]; 0.031 M, time 1 hr): 0.3
- Amount of Diclofenac delivered ([3]; 0.031 M, time 3 hr): 5.4
- Amount of Diclofenac delivered ([3]; 0.031 M, time 5 hr): 12.1
- Amount of Diclofenac delivered ([3]; 0.031 M, time 24 hr): 110.9
- experimental Flux J ([3]; KCl conc 0 %): 4.3 μg h^−1 cm^−2
- experimental Flux J ([3]; KCl conc 0.1 %): 6.2 μg h^−1 cm^−2
- experimental Flux J ([3]; KCl conc 0.5 %): 7.0 μg h^−1 cm^−2
- Mobility ratio w ([1]; Diclofenac 0.0000016 mol cm^−3): 4.6
- Mobility ratio w ([1]; Diclofenac 0.0000032 mol cm^−3 (last line)): 4.6
- Mobility ratio w ([1]; Diclofenac 0.0000032 mol cm^−3 (third line)): 4.6
- Mobility ratio w ([1]; Diclofenac 0.000016 mol cm^−3): 4.6
- Mobility of ion (Diclofenac anion compared to chloride ions) ([2]; 0.032 mol dm^−3 sodium Diclofenac donor): 4.6

- Flux ([3]; 0.015 M aqueous Procaterol): 0 mg h^−1 cm^−2
- Amount of aqueous Procaterol delivered ([3]; 0.015 M, time 0 hr): 0
- Amount of aqueous Procaterol delivered ([3]; 0.015 M, time 2 hr): 0
- Amount of aqueous Procaterol delivered ([3]; 0.015 M, time 3 hr): 0
- Amount of aqueous Procaterol delivered ([3]; 0.015 M, time 5 hr): 0
- Flux ([3]; 0.03 M aqueous Procaterol): 0.024 mg h^−1 cm^−2
- Amount of aqueous Procaterol delivered ([3]; 0.03 M, time 0 hr): 0
- Amount of aqueous Procaterol delivered ([3]; 0.03 M, time 2 hr): 0
- Amount of aqueous Procaterol delivered ([3]; 0.03 M, time 3 hr): 0
- Amount of aqueous Procaterol delivered ([3]; 0.03 M, time 5 hr): 0.12
- Flux ([3]; 0.06 M aqueous Procaterol): 0.082 mg h^−1 cm^−2
- Amount of aqueous Procaterol delivered ([3]; 0.06 M, time 0 hr): 0
- Amount of aqueous Procaterol delivered ([3]; 0.06 M, time 2 hr): 0.13
- Amount of aqueous Procaterol delivered ([3]; 0.06 M, time 3 hr): 0.22
- Amount of aqueous Procaterol delivered ([3]; 0.06 M, time 5 hr): 0.41
- Flux ([3]; […] aqueous Procaterol): 0.84 mg h^−1 cm^−2
- Amount of aqueous Procaterol delivered ([3]; […], time 0 hr): 0
- Amount of aqueous Procaterol delivered ([3]; […], time 2 hr): 1.53
- Amount of aqueous Procaterol delivered ([3]; […], time 3 hr): 2.47
- Amount of aqueous Procaterol delivered ([3]; […], time 5 hr): 4.20
- Total transmission amount, Ave. ([4]; Test ID 720 (5.0%), 0 hrs.): 0.0
- Total transmission amount, single samples #1-#4 ([4]; Test ID 720 (5.0%), 0 hrs.): 0.0
- Total transmission amount, Ave. ([4]; Test ID 720 (5.0%), 1 hr.): 0.7
- Total transmission amount, Ave. ([4]; Test ID 720 (5.0%), 3 hrs.): 5.3
- Total transmission amount, Ave. ([4]; Test ID 720 (5.0%), 5 hrs.): 10.4
- Total transmission amount, Ave. ([4]; Test ID 720 (5.0%), 8 hrs.): 16.3
- Total transmission amount, Ave. ([4]; Test ID 722 (2.5%), 0 hrs.): 0.0
- Total transmission amount, single samples #1-#4 ([4]; Test ID 722 (2.5%), 0 hrs.): 0.0
- Total transmission amount, Ave. ([4]; Test ID 722 (2.5%), 1 hr.): 0.4
- Total transmission amount, Ave. ([4]; Test ID 722 (2.5%), 3 hrs.): 1.7
- Total transmission amount, Ave. ([4]; Test ID 722 (2.5%), 5 hrs.): 2.8
- Total transmission amount, Ave. ([4]; Test ID 722 (2.5%), 8 hrs.): 4.1
- Total transmission amount, Ave. ([4]; Test ID 724 (1.0%), 0 hrs.): 0.0
- Total transmission amount, single samples #1-#4 ([4]; Test ID 724 (1.0%), 0 hrs.): 0.0
- Total transmission amount, Ave. ([4]; Test ID 724 (1.0%), 1 hr.): 0.0
- Total transmission amount, single samples #1-#4 ([4]; Test ID 724 (1.0%), 1 hr.): 0.0
- Total transmission amount, Ave. ([4]; Test ID 724 (1.0%), 3 hrs.): 0.2
- Total transmission amount, Ave. ([4]; Test ID 724 (1.0%), 5 hrs.): 0.4
- Total transmission amount, Ave. ([4]; Test ID 724 (1.0%), 8 hrs.): 0.7
- Total transmission amount, Ave. ([4]; Test ID 726 (0.5%), 0 hrs.): 0.0
- Total transmission amount, single samples #1-#4 ([4]; Test ID 726 (0.5%), 0 hrs.): 0.0
- Total transmission amount, Ave. ([4]; Test ID 726 (0.5%), 1 hr.): 0.0
- Total transmission amount, single samples #1-#4 ([4]; Test ID 726 (0.5%), 1 hr.): 0.0
- Total transmission amount, Ave. ([4]; Test ID 726 (0.5%), 3 hrs.): 0.2
- Total transmission amount, Ave. ([4]; Test ID 726 (0.5%), 5 hrs.): 0.5
- Total transmission amount, Ave. ([4]; Test ID 726 (0.5%), 8 hrs.): 0.8
- Mobility ratio w ([1]; Procaterol 0.000015 mol cm^−3): 0.13
- Mobility ratio w ([1]; Procaterol 0.00003 mol cm^−3): 0.13
- Mobility ratio w ([1]; Procaterol 0.00006 mol cm^−3): 0.13
- Mobility of ion (Procaterol cation with respect to chloride ions) ([2]; […] Procaterol HCl donor): 0.13
SMILES: CCC(NC(C)C)C(O)c1ccc(O)c2[nH]c(=O)ccc12 (stereo not shown) [Procaterol HCl, 8-hydroxy-5-[1-hydroxy-2-[(1-methylethyl)amino]butyl]-2(1H)-quinolinone]
